IC50 data for 28 molecules are collected here from US9944645B2, “Imidazotriazines and imidazopyrimidines as kinase inhibitors” (Incyte Holdings Corporation, priority 2006, dated 2018).

Where only a bound is given, the exact number is not on record here.

The target of the experiment is c-Met kinase (h-Met; histidine-tagged c-Met catalytic domain fusion protein) (Homo sapiens (Human), UniProt P08581). The experiment can be described thus: In Vitro c-Met Kinase Enzyme Assays. Type of experiment: biochemical. The note with it: phosphorylation of poly Glu-Tyr, 5 μM ATP, 25 minutes at 30° C. Here is the method: Compounds were screened in vitro for their ability to inhibit c-Met kinase activity. […] Briefly, histidine-tagged c-Met catalytic domain fusion protein (Invitrogen, #PV3143) was used for the assay. […] The reaction lasted for 25 minutes at 30° C. After the reaction was completed, the contents of the plates was discarded. Plates were then washed with TBS-T (250 μL/well, 5×) and then blocked with TBS-T containing 1% BSA for 2 hours. The contents of the plates was discarded, and 100 μL (per well) of peroxidase-labeled anti-phospho-tyrosine antibody (Sigma, #A5964) diluted (1:60,000) in 1% BSA containing TBS-T were then added and incubated for 1 hour. Plates were washed with TBS-T ([…], 5×) and followed by the color reaction using 100 μL (1:1 mixture) of H2O2 and tetramethylbenzidine (R&D Systems, #DY999). The reaction was stopped in minutes with 100 μL of 2 N H2SO4. The optical density was measured immediately using a microplate reader at 450 nm with wavelength correction at 540 nm. IC50 values were calculated with the GraphPad Prism software. The linear range (i.e., the time period over which the rate remained equivalent to the initial rate) was determined for the kinase and IC50 determinations were performed within this range.
c-Met kinase (h-Met; histidine-tagged c-Met catalytic domain fusion protein), sequence (P08581 1078-1345): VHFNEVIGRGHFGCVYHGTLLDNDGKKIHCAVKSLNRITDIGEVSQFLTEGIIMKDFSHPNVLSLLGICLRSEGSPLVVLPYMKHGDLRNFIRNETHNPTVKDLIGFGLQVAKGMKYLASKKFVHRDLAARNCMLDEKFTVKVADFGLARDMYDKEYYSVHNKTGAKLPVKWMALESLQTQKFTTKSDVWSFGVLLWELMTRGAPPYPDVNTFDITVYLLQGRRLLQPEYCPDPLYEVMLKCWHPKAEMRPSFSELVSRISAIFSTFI

`O=C(c1ccc(-c2cnc3ncc(C4(c5ccc6ncccc6c5)CC4)n3c2)cc1)N1CC[C@H](F)C1` [Example 35, 6-{1-[6-(4-[(3S)-3-Fluoropyrrolidin-1-yl]carbonylphenyl)imidazo[1,2-a]pyrimidin-3-yl]cyclopropyl}quinoline]: the IC50 – broadly, the midpoint of a concentration-inhibition curve – was less than 500 nM.
With `COCC1(NC(=O)c2ccc(-c3cnc4ncc(C5(c6ccc7ncccc7c6)CC5)n4c3)cc2)CCC1` [Example 36, N-[1-(Methoxymethyl)cyclobutyl]-4-[3-(1-quinolin-6-ylcyclopropyl)imidazo[1,2-a]pyrimidin-6-yl]benzamide], the IC50 is less than 500 nM.
The same measure for `O=C(NC1CCN(c2ccccn2)C1)c1ccc(-c2cnc3ncc(C4(c5ccc6ncccc6c5)CC4)n3c2)cc1` (stereo not shown) [Example 37, N-(1-Pyridin-2-ylpyrrolidin-3-yl)-4-[3-(1-quinolin-6-ylcyclopropyl)imidazo[1,2-a]pyrimidin-6-yl]benzamide]: less than 500 nM; for `O=C(c1ccc(-c2cnc3ncc(C4(c5ccc6ncccc6c5)CC4)n3c2)cc1)N1CCC(c2ccccn2)C1` (stereo not shown) [Example 38, 6-[1-(6-{4-[(3-Pyridin-2-ylpyrrolidin-1-yl)carbonyl]phenyl}imidazo[1,2-a]pyrimidin-3-yl)cyclopropyl]quinoline]: less than 500 nM.
The same measure for `O=C(c1ccc(-c2cnc3ncc(C4(c5ccc6ncccc6c5)CC4)n3c2)cc1)N1CC[C@H](Oc2ccccn2)C1` [Example 39, 6-{1-[6-(4-[(3S)-3-(Pyridin-2-yloxy)pyrrolidin-1-yl]carbonylphenyl)imidazo[1,2-a]pyrimidin-3-yl]cyclopropyl}quinoline]: less than 500 nM; for `O=C(NCCOc1ccccn1)c1ccc(-c2cnc3ncc(C4(c5ccc6ncccc6c5)CC4)n3c2)cc1` [Example 40, N-[2-(Pyridin-2-yloxy)ethyl]-4-[3-(1-quinolin-6-ylcyclopropyl)imidazo[1,2-a]pyrimidin-6-yl]benzamide]: less than 500 nM.
Next, `CC(COc1ccccn1)NC(=O)c1ccc(-c2cnc3ncc(C4(c5ccc6ncccc6c5)CC4)n3c2)cc1` (stereo not shown) [Example 41, N-[1-Methyl-2-(pyridin-2-yloxy)ethyl]-4-[3-(1-quinolin-6-ylcyclopropyl)imidazo[1,2-a]pyrimidin-6-yl]benzamide]: less than 500 nM; `O=C(NCCOc1ccccc1)c1ccc(-c2cnc3ncc(C4(c5ccc6ncccc6c5)CC4)n3c2)cc1` [Example 42, N-(2-Phenoxyethyl)-4-[3-(1-quinolin-6-ylcyclopropyl)imidazo[1,2-a]pyrimidin-6-yl]benzamide]: less than 500 nM.
`CNC(=O)[C@@H](NC(=O)c1ccc(-c2cnc3ncc(C4(c5ccc6ncccc6c5)CC4)n3c2)cc1)C(C)(C)C` [Example 43, N-(1S)-2,2-Dimethyl-1-[(methylamino)carbonyl]propyl-4-[3-(1-quinolin-6-ylcyclopropyl)imidazo[1,2-a]pyrimidin-6-yl]benzamide] returned an IC50 of less than 500 nM.
The same measure for `CN(C)C(=O)[C@@H](NC(=O)c1ccc(-c2cnc3ncc(C4(c5ccc6ncccc6c5)CC4)n3c2)cc1)C(C)(C)C` [Example 44, N-(1S)-1-[(Dimethylamino)carbonyl]-2,2-dimethylpropyl-4-[3-(1-quinolin-6-ylcyclopropyl)imidazo[1,2-a]pyrimidin-6-yl]benzamide]: less than 500 nM; for `CC(C)(C)[C@H](NC(=O)c1ccc(-c2cnc3ncc(C4(c5ccc6ncccc6c5)CC4)n3c2)cc1)C(=O)N1CCC1` [Example 45, N-[(1S)-1-(Azetidin-1-ylcarbonyl)-2,2-dimethylpropyl]-4-[3-(1-quinolin-6-ylcyclopropyl)imidazo[1,2-a]pyrimidin-6-yl]benzamide]: less than 500 nM.
Next, `O=C(NC1CC1)c1cccc(-c2cnc3ncc(C4(c5ccc6ncccc6c5)CC4)n3c2)c1` [Example 46, N-Cyclopropyl-3-[3-(1-quinolin-6-ylcyclopropyl)imidazo[1,2-a]pyrimidin-6-yl]benzamide]: less than 500 nM; `O=C(NCc1ccccn1)c1cccc(-c2cnc3ncc(C4(c5ccc6ncccc6c5)CC4)n3c2)c1` [Example 47, N-(Pyridin-2-ylmethyl)-3-[3-(1-quinolin-6-ylcyclopropyl)imidazo[1,2-a]pyrimidin-6-yl]benzamide]: less than 500 nM.
Next, `CN(C)C(=O)c1cccc(-c2cnc3ncc(C4(c5ccc6ncccc6c5)CC4)n3c2)c1` [Example 48, N,N-Dimethyl-3-[3-(1-quinolin-6-ylcyclopropyl)imidazo[1,2-a]pyrimidin-6-yl]benzamide]: less than 500 nM; `CNC(=O)c1cccc(-c2cnc3ncc(C4(c5ccc6ncccc6c5)CC4)n3c2)c1` [Example 49, N-Methyl-3-[3-(1-quinolin-6-ylcyclopropyl)imidazo[1,2-a]pyrimidin-6-yl]benzamide]: less than 500 nM.
`CNC(=O)[C@H](C)NC(=O)c1ccc(-c2cnc3ncc(C4(c5ccc6ncccc6c5)CC4)n3c2)cc1` [Example 50, N-[(1S)-1-Methyl-2-(methylamino)-2-oxoethyl]-4-[3-(1-quinolin-6-ylcyclopropyl)imidazo[1,2-a]pyrimidin-6-yl]benzamide] registered an IC50 of less than 500 nM.
Next, `CNC(=O)[C@@H](C)NC(=O)c1ccc(-c2cnc3ncc(C4(c5ccc6ncccc6c5)CC4)n3c2)cc1` [Example 51, N-[(1R)-1-Methyl-2-(methylamino)-2-oxoethyl]-4-[3-(1-quinolin-6-ylcyclopropyl)imidazo[1,2-a]pyrimidin-6-yl]benzamide]: less than 500 nM; `COC(=O)N1CCN(c2ccc(-c3cnc4ncc(C5(c6ccc7ncccc7c6)CC5)n4c3)cn2)CC1` [Example 53, Methyl 4-{5-[3-(1-quinolin-6-ylcyclopropyl)imidazo[1,2-a]pyrimidin-6-yl]pyridin-2-yl}piperazine-1-carboxylate]: less than 500 nM; `CS(=O)(=O)N1CCN(c2ccc(-c3cnc4ncc(C5(c6ccc7ncccc7c6)CC5)n4c3)cn2)CC1` [Example 54, 6-[1-(6-{6-[4-(Methylsulfonyl)piperazin-1-yl]pyridin-3-yl}imidazo[1,2-a]pyrimidin-3-yl)cyclopropyl]quinoline]: less than 500 nM.
The same measure for `CN(C)C(=O)N1CCN(c2ccc(-c3cnc4ncc(C5(c6ccc7ncccc7c6)CC5)n4c3)cn2)CC1` [Example 55, N,N-Dimethyl-4-{5-[3-(1-quinolin-6-ylcyclopropyl)imidazo[1,2-a]pyrimidin-6-yl]pyridin-2-yl}piperazine-1-carboxamide]: less than 500 nM.
The same measure for `CC(C)[C@H](NC(=O)c1ccc(-c2cnc3ncc(C4(c5ccc6ncccc6c5)CC4)n3c2)cc1)C(=O)N(C)C` [Example 56, N-(1S)-1-[(Dimethylamino)carbonyl]-2-methylpropyl-4-[3-(1-quinolin-6-ylcyclopropyl)imidazo[1,2-a]pyrimidin-6-yl]benzamide]: less than 500 nM; for `CN(C)C(=O)C1(NC(=O)c2ccc(-c3cnc4ncc(C5(c6ccc7ncccc7c6)CC5)n4c3)cc2)CCC1` [Example 57, N-1-[(Dimethylamino)carbonyl]cyclobutyl-4-[3-(1-quinolin-6-ylcyclopropyl)imidazo[1,2-a]pyrimidin-6-yl]benzamide]: less than 500 nM.
As to `CC(C)(C)[C@H](NC(=O)c1ccc(-c2cnc3ncc(C4(c5ccc6ncccc6c5)CC4)n3c2)cn1)C(=O)N1CCC1` [Example 58, N-[(1S)-1-(Azetidin-1-ylcarbonyl)-2,2-dimethylpropyl]-5-[3-(1-quinolin-6-ylcyclopropyl)imidazo[1,2-a]pyrimidin-6-yl]pyridine-2-carboxamide], the IC50 is less than 500 nM.
The same measure for `CNC(=O)[C@@H](NC(=O)c1ccc(-c2cnc3ncc(C4(c5ccc6ncccc6c5)CC4)n3c2)cn1)C(C)(C)C` [Example 59, N-(1S)-2,2-Dimethyl-1-[(methylamino)carbonyl]propyl-5-[3-(1-quinolin-6-ylcyclopropyl)imidazo[1,2-a]pyrimidin-6-yl]pyridine-2-carboxamide]: less than 500 nM; for `CC(C)(C)[C@H](NC(=O)c1ccc(-c2cnc3ncc(C4(c5ccc6ncccc6c5)CC4)n3c2)cn1)C(=O)NC1CC1` [Example 60, N-(1S)-1-[(Cyclopropylamino)carbonyl]-2,2-dimethylpropyl-5-[3-(1-quinolin-6-ylcyclopropyl)imidazo[1,2-a]pyrimidin-6-yl]pyridine-2-carboxamide]: less than 500 nM; for `C[C@H](NC(=O)c1ccc(-c2cnc3ncc(C4(c5ccc6ncccc6c5)CC4)n3c2)cn1)C(=O)N(C)C` [Example 61, N-[(1S)-2-(Dimethylamino)-1-methyl-2-oxoethyl]-5-[3-(1-quinolin-6-ylcyclopropyl)imidazo[1,2-a]pyrimidin-6-yl]pyridine-2-carboxamide]: less than 500 nM.
In the case of `C[C@@H](NC(=O)c1ccc(-c2cnc3ncc(C4(c5ccc6ncccc6c5)CC4)n3c2)cn1)C(=O)N(C)C` [Example 62, N-[(1R)-2-(Dimethylamino)-1-methyl-2-oxoethyl]-5-[3-(1-quinolin-6-ylcyclopropyl)imidazo[1,2-a]pyrimidin-6-yl]pyridine-2-carboxamide], the IC50 was less than 500 nM.
The same measure for `O=C(COc1ccc(-c2cnc3ncc(C4(c5ccc6ncccc6c5)CC4)n3c2)cc1)N1CCCC1` [Example 63, 6-(1-{6-[4-(2-Oxo-2-pyrrolidin-1-ylethoxy)phenyl]imidazo[1,2-a]pyrimidin-3-yl}cyclopropyl)quinoline]: less than 500 nM.
